These results are taken from ChEMBL document CHEMBL5360583, “Benzo[j]fluoranthene-Derived Natural Products” (J Nat Prod, 2023).

Values after ≈ are worked out from the molar mass of the structure shown.

One data set has as its system RAW264.7. In words: Anti-inflammatory activity in mouse RAW264.7 cells assessed as inhibition of NO production. It counts as functional, cell-based.
Data set [1] can be described thus: Inhibition of IL-2 production in CD28-stimulated human Jurkat E6.1 cells. In kind it is functional, cell-based.
Data set [2] is described as follows: Inhibition of tyrosine kinase (unknown origin). Also on record: species or system Homo sapiens.
Data set [3] relates to L929. In words: Cytotoxicity against mouse L929 cells assessed as reduction in cell viability. In kind it is functional, cell-based.
The test system of a further data set is SW480. As to the kind of experiment: Cytotoxicity against human SW480 cells assessed as reduction in cell growth by MTT assay. It counts as functional, cell-based. On the technique in general: Formazan colour is commonly taken as a measure of viable cells.
Another data set deals with Staphylococcus aureus. As to the kind of experiment: Antibacterial activity against Staphylococcus aureus assessed as zone of inhibition. It counts as functional.
Another data set deals with Enterococcus faecalis. As to the kind of experiment: Antibacterial activity against Enterococcus faecalis assessed as zone of inhibition. It counts as functional.
The test system of a further data set is Splenocyte. In words: Immunosuppressive activity in BALB/c mouse splenocyte assessed as reduction in ConA-induced mouse T-lymphocytes proliferation incubated for 48 hrs by MTT assay. It counts as functional, cell-based.
The nature of data set [4]: Cytotoxicity against BALB/c mouse Splenocyte assessed as reduction in cell viability incubated for 48 hrs by MTT assay. It counts as toxicity, cell-based. The conditions noted are these: splenocytes.
The test system of data set [5] is L929. In words: Cytotoxicity against mouse L929 cells assessed as reduction in cell viability by MTT assay. It counts as functional, cell-based.
For data set [6], the target named is Hyaluronan-binding protein 2 (Homo sapiens, UniProt Q14520). In words: Inhibition of spermidine-induced human pro-PHBP autoactivation.
Hyaluronan-binding protein 2, sequence (Q14520 24-313 limits assumed): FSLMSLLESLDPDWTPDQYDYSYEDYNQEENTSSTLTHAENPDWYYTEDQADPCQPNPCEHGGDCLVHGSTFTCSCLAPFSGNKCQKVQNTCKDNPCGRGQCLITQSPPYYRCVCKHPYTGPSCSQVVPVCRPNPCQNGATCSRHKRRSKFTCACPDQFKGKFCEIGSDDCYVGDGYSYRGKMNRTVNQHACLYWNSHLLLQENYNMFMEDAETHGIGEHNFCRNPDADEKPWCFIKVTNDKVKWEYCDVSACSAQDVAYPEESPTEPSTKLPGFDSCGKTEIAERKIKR
Hyaluronan-binding protein 2, sequence (Q14520 314-560 limits assumed): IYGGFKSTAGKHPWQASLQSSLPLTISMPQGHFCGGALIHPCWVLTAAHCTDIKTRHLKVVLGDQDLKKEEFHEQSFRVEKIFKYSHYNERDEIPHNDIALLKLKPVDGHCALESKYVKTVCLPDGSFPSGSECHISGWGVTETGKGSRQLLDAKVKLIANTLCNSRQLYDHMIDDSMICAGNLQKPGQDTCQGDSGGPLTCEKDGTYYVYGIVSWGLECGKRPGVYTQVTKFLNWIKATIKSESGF
The test system of data set [7] is Micrococcus luteus. As to the kind of experiment: Antibacterial activity against Micrococcus luteus assessed as bacterial growth inhibition. In kind it is functional.
A further data set has as its system Caenorhabditis elegans. As to the kind of experiment: Nematicidal activity against Caenorhabditis elegans. It counts as functional. To be noted: read-out: LD50 (the source's name).
The subject of a further data set is Bacillus subtilis. In words: Antibacterial activity against Bacillus subtilis assessed as zone of inhibition by disc diffusion method. In kind it is functional.
The subject of another data set is Yarrowia lipolytica. In words: Antifungal activity against Yarrowia lipolytica assessed as zone of inhibition. In kind it is functional.
Another data set concerns Mucor hiemalis. As to the kind of experiment: Antifungal activity against Mucor hiemalis assessed as inhibition of fungal growth measured after 18 to 48 hrs by microbroth dilution assay. In kind it is functional. To be noted: time 18-48 hrs. (In broth dilution the organism is exposed to a series of concentrations in liquid medium.)
The test system of data set [8] is Micrococcus luteus. In words: Antibacterial activity against Micrococcus luteus assessed as reduction in bacterial growth. In kind it is functional.
The subject of another data set is Jurkat. As to the kind of experiment: Antiproliferative activity against human Jurkat cells assessed as reduction in cell viability measured after 24 hrs by MTT assay. In kind it is functional, cell-based.
The test system of another data set is Ramos. As to the kind of experiment: Antiproliferative activity against human Ramos cells assessed as reduction in cell viability measured after 24 hrs by MTT assay. It counts as functional, cell-based.
Data set [9] can be described thus: Antioxidant activity assessed as DPPH radical scavenging activity at 50 uM. It counts as functional. On the technique in general: The DPPH test is a chemical assay of radical scavenging.

As to `CO[C@H]1C[C@H](O)C2=C3c4cccc(O)c4C(=O)C[C@@H]3c3ccc(O)c1c32` [HYPOXYLONOL B], the half-maximal inhibitory concentration (IC50) (in general, the point on the concentration scale where inhibition reaches its midpoint) in the data set with RAW264.7 worked out at 21.1 µM.
Take `COC1C(O)c2c(O)cccc2C2=C3CCC(=O)c4c(O)ccc(c43)C21` (centres undefined): the 50% inhibitory concentration (IC50) in data set [1] and in [2] was greater than 5 µM in each case.
For `O=C1C(O)=c2c(c3cc(O)c(=O)c4c(O)ccc2c4-3)-c2cccc(O)c21`, in the data set with L929 [3], the IC50 was 7 µM.
Consider `O=C1C[C@@H]2[C@H]3CC[C@H](O)c4c(O)ccc(c43)[C@]2(O)c2cccc(O)c21`, for which, in the data set on SW480, the IC50 was 9.59 µM. In addition, the “inhibition zone (IZ)” value in the data set on Staphylococcus aureus and in the data set with Enterococcus faecalis was 10 mm throughout.
In the case of `CO[C@H]1C[C@H](O)C2=C3c4cccc(O)c4C(=O)[C@@H](O)[C@@H]3C3=CC=C(O)C1C32` (some centres undefined), in the data set with RAW264.7, the concentration for half-maximal inhibition (IC50) is 14.4 µM.
On to `Oc1cccc2c3c(ccc12)-c1ccc(O)c2cccc-3c12`, for which the IC50 with Splenocyte was 0.025 µg/mL (≈ 0.0879 µM). For the same compound, in [4], the IC50 at 48 h amounted to 0.22 µg/mL (≈ 0.774 µM).
Consider `O=C1C[C@H](O)[C@H]2c3c(ccc(O)c31)-c1cc(O)c3c(O)cccc3c12`, for which, in the data set with L929 [5], the concentration for half-maximal inhibition (IC50) worked out at 1.1 µM.
Turning to `O=C1C(O)=c2c(c3ccc(=O)c4c(O)ccc2c4-3)-c2cccc(O)c21`, the IC50 in [6] is 14 µM.
Turning to `CO[C@@H]1[C@H](OC)c2c(O)cccc2C2=C3CCC(=O)c4c(O)ccc(c43)[C@H]21`, the figures for the concentration for half-maximal inhibition (IC50) in data set [1] and in data set [2] were 2.5 µM and 0.76 µM, respectively.
Turning to `COc1cccc2c3c(ccc12)-c1ccc(O)c2c(O)ccc-3c12`, in the data set with Micrococcus luteus [7], the MIC (commonly the lowest concentration that inhibits growth of the organism) turned out to be 8.3 µg/mL (≈ 26.4 µM).
On to `O=C1c2c3c(cc(O)c2[C@H](O)[C@@H]2O[C@H]12)C1C=CC(O)=C2C(O)=CC=C3C21` (some centres undefined), for which the LC50 in the data set on Caenorhabditis elegans stood at 50 µg/mL (≈ 143 µM). For the same compound, the “inhibition zone (IZ)” value was determined as 11 mm in the data set with Bacillus subtilis and 8 mm with Yarrowia lipolytica.
As for `Oc1cccc2c3c(ccc12)-c1ccc(O)c2c(O)ccc-3c12`, the MIC in the data set with Micrococcus luteus [7] amounted to 16.7 µg/mL (≈ 55.6 µM).
Turning to `COc1cccc2c3c(ccc12)-c1ccc(O)c2c(OC)ccc-3c12`, the MIC in the data set with Mucor hiemalis turned out to be 4.3 µg/mL (≈ 13.1 µM).
For the compound `COC1C(=O)c2c(O)cccc2C2=C3CCC(=O)c4c(O)ccc(c43)C21` (centres undefined), the 50% inhibitory concentration (IC50) in data set [1] stood at 2.4 µM; in data set [2], 0.045 µM.
Consider `O=C1C[C@@H]2[C@@H]3CCC(=O)c4c(O)ccc(c43)[C@]2(O)c2cccc(O)c21`, for which the LC50 in the data set on Caenorhabditis elegans amounted to 25 µg/mL (≈ 74.3 µM). Also, the “inhibition zone (IZ)” value in the data set with Bacillus subtilis was found to be 10 mm; with Yarrowia lipolytica, 7 mm.
As to `O=C1C[C@H]2C(=C3CCC(=O)c4c(O)ccc2c43)c2cccc(O)c21`, the MIC with Micrococcus luteus [8] is 16.7 µg/mL (≈ 52.5 µM). Moreover, the LC50 in the data set on Caenorhabditis elegans is 100 µg/mL (≈ 314 µM). Further, in the data set with L929 [5], the IC50 was 10.4 µM. Further, the “inhibition zone (IZ)” value with Bacillus subtilis was found to be 11 mm; in the data set on Yarrowia lipolytica, 9 mm.
`O=C1C[C@]2(O)C(=C3C=CC(=O)c4c(O)ccc2c43)c2cccc(O)c21`: the IC50 in the data set on Jurkat came to 14.1 µM; with Ramos it was 6.6 µM.
In the case of `CO[C@@H]1[C@H](O)c2c(O)cccc2C2=C3CCC(=O)c4c(O)ccc(c43)[C@H]21`, the IC50 is 0.4 µM in [1] and 0.06 µM in data set [2].
`O=C1C[C@@H]2[C@H]3CCC(=O)c4c(O)ccc(c43)[C@]2(O)c2cccc(O)c21`: the “inhibition zone (IZ)” value in the data set with Bacillus subtilis is 11 mm; with Staphylococcus aureus, 12 mm.
Turning to `O=C1C[C@H]2C(=C3c4c2ccc(O)c4[C@@H](O)C[C@H]3O)c2cccc(O)c21`, in data set [9], the Activity amounted to 1.74%.
For the compound `O=C1C[C@@H]2[C@H]3CC[C@@H](O)c4c(O)ccc(c43)[C@]2(O)c2cccc(O)c21`, the “inhibition zone (IZ)” value with Bacillus subtilis and with Enterococcus faecalis was 10 mm throughout.
